Experimental data: PubChem BioAssay AID1259407 (Chemical Carcinogenesis Research Information System (CCRIS), 2018)
Active and inactive are the calls of the source. No rule for the calls is given here.

Test system: CCRIS mutagenicity, Ames/micronucleus/aberration tests
Test: CCRIS mutagenicity studies
[1] = Test System: AMES SALMONELLA TYPHIMURIUM, Strain/Indicator: TA97, Metabolic Activation: NONE, Method: PREINCUBATION
[2] = Test System: AMES SALMONELLA TYPHIMURIUM, Strain/Indicator: TA98, Metabolic Activation: NONE, Method: PREINCUBATION
[3] = Test System: AMES SALMONELLA TYPHIMURIUM, Strain/Indicator: TA98, Metabolic Activation: NONE, Method: STANDARD PLATE
[4] = Test System: AMES SALMONELLA TYPHIMURIUM, Strain/Indicator: TA98, Metabolic Activation: RAT, LIVER, S-9, AROCLOR 1254, Method: STANDARD PLATE
[5] = Test System: AMES SALMONELLA TYPHIMURIUM, Strain/Indicator: TA100, Metabolic Activation: NONE, Method: PREINCUBATION
[6] = Test System: AMES SALMONELLA TYPHIMURIUM, Strain/Indicator: TA100, Metabolic Activation: NONE, Method: STANDARD PLATE
[7] = Test System: AMES SALMONELLA TYPHIMURIUM, Strain/Indicator: TA100, Metabolic Activation: RAT, LIVER, S-9, AROCLOR 1254, Method: STANDARD PLATE
[8] = Test System: AMES SALMONELLA TYPHIMURIUM, Strain/Indicator: TA102, Metabolic Activation: NONE, Method: PREINCUBATION
[9] = Test System: AMES SALMONELLA TYPHIMURIUM, Strain/Indicator: TA104, Metabolic Activation: NONE, Method: PREINCUBATION

## O=C(O)/C=C\C(=O)O
[1]
  mutagenic call: inactive; negative
Test System: AMES SALMONELLA TYPHIMURIUM, Strain/Indicator: TA97, Metabolic Activation: RAT, LIVER, S-9, PHENOBARBITAL AND 5,6-BENZOFLAVONE, Method: PREINCUBATION
  mutagenic call: inactive; negative
[2]
  mutagenic call: inactive; negative
[3]
  mutagenic call: inactive; negative
[4]
  mutagenic call: inactive; negative
Test System: AMES SALMONELLA TYPHIMURIUM, Strain/Indicator: TA98, Metabolic Activation: RAT, LIVER, S-9, PHENOBARBITAL AND 5,6-BENZOFLAVONE, Method: PREINCUBATION
  mutagenic call: inactive; negative
[5]
  mutagenic call: inactive; negative
[6]
  mutagenic call: inactive; negative
[7]
  mutagenic call: inactive; negative
Test System: AMES SALMONELLA TYPHIMURIUM, Strain/Indicator: TA100, Metabolic Activation: RAT, LIVER, S-9, PHENOBARBITAL AND 5,6-BENZOFLAVONE, Method: PREINCUBATION
  mutagenic call: inactive; negative
[8]
  mutagenic call: inactive; negative
Test System: AMES SALMONELLA TYPHIMURIUM, Strain/Indicator: TA102, Metabolic Activation: RAT, LIVER, S-9, PHENOBARBITAL AND 5,6-BENZOFLAVONE, Method: PREINCUBATION
  mutagenic call: inactive; negative
[9]
  mutagenic call: inactive; negative
Test System: AMES SALMONELLA TYPHIMURIUM, Strain/Indicator: TA104, Metabolic Activation: RAT, LIVER, S-9, PHENOBARBITAL AND 5,6-BENZOFLAVONE, Method: PREINCUBATION
  mutagenic call: inactive; negative
Test System: AMES SALMONELLA TYPHIMURIUM, Strain/Indicator: TA1535, Metabolic Activation: NONE, Method: STANDARD PLATE
  mutagenic call: inactive; negative
Test System: AMES SALMONELLA TYPHIMURIUM, Strain/Indicator: TA1535, Metabolic Activation: RAT, LIVER, S-9, AROCLOR 1254, Method: STANDARD PLATE
  mutagenic call: inactive; negative
Test System: AMES SALMONELLA TYPHIMURIUM, Strain/Indicator: TA1537, Metabolic Activation: NONE, Method: STANDARD PLATE
  mutagenic call: inactive; negative
Test System: AMES SALMONELLA TYPHIMURIUM, Strain/Indicator: TA1537, Metabolic Activation: RAT, LIVER, S-9, AROCLOR 1254, Method: STANDARD PLATE
  mutagenic call: inactive; negative
Test System: AMES SALMONELLA TYPHIMURIUM, Strain/Indicator: TA1538, Metabolic Activation: NONE, Method: STANDARD PLATE
  mutagenic call: inactive; negative
Test System: AMES SALMONELLA TYPHIMURIUM, Strain/Indicator: TA1538, Metabolic Activation: RAT, LIVER, S-9, AROCLOR 1254, Method: STANDARD PLATE
  mutagenic call: inactive; negative

## OCc1ccc2c3c(cccc13)-c1ccccc1-2
[3]
  mutagenic call: inactive; negative
[6]
  mutagenic call: inactive; negative

## COP(=S)(OC)Oc1ccc(N)c(C)c1
[3]
  mutagenic call: inactive; negative
[4]
  mutagenic call: inactive; negative
[6]
  mutagenic call: inactive; negative
[7]
  mutagenic call: active; positive

## CCCC(=O)O
[1]
  mutagenic call: inactive; negative
Test System: AMES SALMONELLA TYPHIMURIUM, Strain/Indicator: TA97, Metabolic Activation: RAT, LIVER, S-9, AROCLOR 1254, Method: PREINCUBATION
  mutagenic call: inactive; negative
[2]
  mutagenic call: inactive; negative
Test System: AMES SALMONELLA TYPHIMURIUM, Strain/Indicator: TA98, Metabolic Activation: RAT LIVER S-9, PHENOBARBITAL AND BETA-NAPHTHOFLAVONE, Method: PREINCUBATION
  mutagenic call: inactive; negative
[5]
  mutagenic call: inactive; negative
Test System: AMES SALMONELLA TYPHIMURIUM, Strain/Indicator: TA100, Metabolic Activation: RAT LIVER S-9, PHENOBARBITAL AND BETA-NAPHTHOFLAVONE, Method: PREINCUBATION
  mutagenic call: inactive; negative
[8]
  mutagenic call: inactive; negative
Test System: AMES SALMONELLA TYPHIMURIUM, Strain/Indicator: TA102, Metabolic Activation: RAT LIVER S-9, PHENOBARBITAL AND BETA-NAPHTHOFLAVONE, Method: PREINCUBATION
  mutagenic call: inactive; negative
Test System: AMES SALMONELLA TYPHIMURIUM, Strain/Indicator: TA102, Metabolic Activation: RAT, LIVER, S-9, AROCLOR 1254, Method: PREINCUBATION
  mutagenic call: inactive; negative
[9]
  mutagenic call: inactive; negative
Test System: AMES SALMONELLA TYPHIMURIUM, Strain/Indicator: TA104, Metabolic Activation: RAT LIVER S-9, PHENOBARBITAL AND BETA-NAPHTHOFLAVONE, Method: PREINCUBATION
  mutagenic call: inactive; negative
Test System: AMES SALMONELLA TYPHIMURIUM, Strain/Indicator: TA1535, Metabolic Activation: NONE, Method: PREINCUBATION
  mutagenic call: inactive; negative
Test System: AMES SALMONELLA TYPHIMURIUM, Strain/Indicator: TA1535, Metabolic Activation: RAT LIVER S-9, PHENOBARBITAL AND BETA-NAPHTHOFLAVONE, Method: PREINCUBATION
  mutagenic call: inactive; negative
Test System: AMES SALMONELLA TYPHIMURIUM, Strain/Indicator: TA1537, Metabolic Activation: NONE, Method: PREINCUBATION
  mutagenic call: inactive; negative
Test System: AMES SALMONELLA TYPHIMURIUM, Strain/Indicator: TA1537, Metabolic Activation: RAT LIVER S-9, PHENOBARBITAL AND BETA-NAPHTHOFLAVONE, Method: PREINCUBATION
  mutagenic call: inactive; negative
Test System: E.COLI, Strain/Indicator: WP2UVRA/PKM101, Metabolic Activation: NONE, Method: PREINCUBATION
  mutagenic call: inactive; negative
Test System: E.COLI, Strain/Indicator: WP2UVRA/PKM101, Metabolic Activation: RAT LIVER S-9, PHENOBARBITAL AND BETA-NAPHTHOFLAVONE, Method: PREINCUBATION
  mutagenic call: inactive; negative
Test System: E.COLI, Strain/Indicator: WP2UVRA, Metabolic Activation: NONE, Method: PREINCUBATION
  mutagenic call: inactive; negative
Test System: E.COLI, Strain/Indicator: WP2UVRA, Metabolic Activation: RAT LIVER S-9, PHENOBARBITAL AND BETA-NAPHTHOFLAVONE, Method: PREINCUBATION
  mutagenic call: inactive; negative

## C1=CC2OC2C=CO1 (stereo not given)
[3]
  mutagenic call: inactive; negative
Test System: AMES SALMONELLA TYPHIMURIUM, Strain/Indicator: TA98, Metabolic Activation: RAT, LIVER, S-9, PHENOBARBITAL, Method: STANDARD PLATE
  mutagenic call: inactive; negative
[6]
  mutagenic call: inactive; negative
Test System: AMES SALMONELLA TYPHIMURIUM, Strain/Indicator: TA100, Metabolic Activation: RAT, LIVER, S-9, PHENOBARBITAL, Method: STANDARD PLATE
  mutagenic call: inactive; negative
Test System: AMES SALMONELLA TYPHIMURIUM, Strain/Indicator: TM677/8-AZAGUANINE, Metabolic Activation: NONE, Method: STANDARD PLATE
  mutagenic call: inactive; negative
